Reference: patent US7169787B2, “7-azaindoles, use thereof as phosphodiesterase 4 inhibitors and method for producing the same” (Elbion AG, priority 2000, dated 2007)

Columns and labels:
[1] = system: release of TNFα from cells of nasal polyps; assay: Inhibition of the release of TNFα from cells of nasal polyps (anti-IgE stimulated, ELISA); assay type: cell-based; details: Homo sapiens, anti-IgE stimulated nasal polyp cells
Experimental: The experimental arrangement corresponds essentially to the method described by Campbell, A. M. and J. Bousquet (Anti-allergic activity of H1-blockers, Int. Arch. Allergy Immunol., 1993, 101, 308–310). Nasal polyps form the starting material (material from patients, who had been subjected to a surgical treatment).
The tissue is washed with RPMI 1640 and subsequently digested with protease (2.0 mg/mL), collagenase (1.5 mg/mL), hyaluronidase (0.75 mg/mL), and DNAse (0.05 mg/mL) for two hours at 37° C. (1 g of tissue and 4 mL of RPMI 1640 with enzymes). The cells obtained, a mixture of epithelial cells, monocytes, macrophages, lymphocytes, fibroblasts and granulocytes, are filtered and washed by being centrifuged repeatedly in culture solution and sensitized passively by the addition of human IgE and the cell suspension is brought to a concentration of 2 million cells/mL in RPMI 1640 (supplemented by antibiotics, 10% fetal calf serum, 2 mM of glutamine and 25 mM of Hepes). This suspension is distributed on six-well cell culture plates (1 ml/well). The cells are pre-incubated for 30 minutes with the test substances in different final concentrations and subsequently stimulated to release TNFα by the addition of anti-IgE (7.2 μg/mL). The maximum release into the culture medium takes place after about 18 hours. During this period, the cells are incubated at 37° C. and 5% carbon dioxide. The culture medium (supernatant) is recovered by centrifuging (five minutes at 4000 rpm) and kept at −70° C. until the cytokin is determined. The TNFα in the supernatant is determined with so-called sandwich ELISAs (basic material Pharmingen), with which cytokin concentrations ranging from 30 to 1000 pg/mL can be determined.
Cells, not stimulated with anti IgE, hardly produce any TNFα; on the other hand, stimulated cells secrete large amounts of TNFα, which can be reduced, for example, by PDE 4 inhibitors as a function of the dose. From the percentage inhibition (TNFα release by the cells, stimulated with anti IgE=100%) of the substances tested at different concentrations, the IC50 (concentration at 50% inhibition) is calculated.

[2] = system: actively sensitized Brown Norway Rats; assay: Inhibition of the late phase eosinophilia 48 hours after inhalative ovalbumin challenge; assay type: in vivo, rat; details: 2 h before allergen challenge, BAL 48 h after challenge
Experimental: The inhibition of pulmonary eosinophilia infiltration by the inventive substances is tested on male Brown Norway Rats (200–250 g), which had been actively sensitized against ovalbumin (OVA). The rats were sensitized by subcutaneous injections of a suspension of 10 μg OVA together with 20 mg of aluminum hydroxide as adjuvant in 0.5 mL of physiological salt solution per animal on days 1, 14 and 21. In addition, the animals at the same time received Bordetella pertussis vaccine dilution injected 0.25 mL i.p. per animal. On the 28th day of the experiment, the animals are placed individually in open 1 L Plexiglas boxes, which are connected to a head-nose exposure device. The animals are exposed to an aerosol of 1.0% ovalbumin suspension (allergen challenge). The ovalbumin aerosol is produced by a nebulizer (Bird Micronebulizer, Palm Springs Calif., USA), which is operated with compressed air (0.2 MPa). The exposure time is one hour, normal controls being nebulized also for one hour with an aerosol of 0.9% salt solution.
Forty-eight hours after the allergen challenge, there is a massive migration of eosinophilic granulocytes into the lungs of the animals. At this time, the animals are anesthetized with an excess of ethyl urethane (1.5 g/kg of body weight i.p.) and a bronchoalveolar lavage (BAL) with 3×4 mL of Hank's balance solution is carried out. The total cell count and the number of eosinophilic granulocytes of the pooled BAL liquid are subsequently determined with an automatic cell differentiation instrument (Bayer Diagnostics Technicon HIE). For each animal, the eosinophiles (EOS) in the BAL are calculated in millions/animal: EOS/μl×BAL recovery (mL)=EOS/animal.
For each test, 2 control groups were run (nebulization with physiological salt solution and nebulization with OVA solution).
The percentage inhibition of the eosinophilia of the experimental group, treated with substance, was calculated according to the following formula: {((OVAC−SC)−(OVAD−SC))/(OVAC−SC)}×100%=% inhibition (SC=vehicle-treated control group challenged with 0.9% salt solution; OVAC=vehicle-treated control group challenged with 1% ovalbumin suspension; OVAD=substance-treated experimental group challenged with 1% ovalbumin suspension)
The test substances are applied i.p. or orally as a suspension in 10% polyethylene glycol 300 and 0.5% 5-hydroxyethylcellulose for two hours before the allergen challenge. The control groups are treated with the vehicle in accordance with the application form of the test substance.

[3] = system: Lewis Rats; assay: Inhibition of the lipopolysaccharide (LPS)-induced lung neutrophilia; assay type: in vivo, rat; details: 1 mg/kg p.o., 2 h before LPS provocation; BAL 6 h after provocation
Experimental: The inhibition of pulmonary neutrophil infiltration by the inventive substances is tested on male Lewis Rats (250–350 g). On the day of the experiments, the animals are placed individually in open 1 L Plexiglas boxes, which are connected to a head-nose exposure device. The animals are exposed to an aerosol of a lipopolysaccharide suspension (100 μg LPS/mL of 0.1% hydroxylamine solution) in PBS (LPS provocation). The LPS/hydroxylamine aerosol is nebulized by a nebulizer (Bird Micronebulizer, Palm Springs Calif., USA), which is operated with compressed air (0.2 MPa). The exposure time is 40 minutes, normal controls being nebulized also for 40 minutes with an aerosol of 0.1% hydroxylamine solution in PBS.
Six hours after the LPS provocation, there is a maximum, massive migration of neutrophil granulocytes into the lungs of the animals. At this time, the animals are anesthetized with an excess of ethyl urethane (1.5 g/kg of body weight i.p.) and a bronchoalveolar lavage (BAL) with 3×4 mL of Hank's balance solution is carried out. The total cell count and the number of neutrophil granulocytes of the pooled BAL liquid are subsequently determined with an automatic cell differentiation instrument (Bayer Diagnostics Technicon HIE). For each animal, the neutrophiles (NEUTRO) in the BAL are calculated in millions/animal: NEUTRO/μl×BAL recovery (mL)=NEUTRO/animal.
For each test, 2 control groups were also run (nebulization with 0.1% hydroxylamine solution in PBS and nebulization with 100 μg LPS/mL of 0.1% hydroxylamine solution in PBS).
The percentage inhibition of the neutrophilia of the experimental group, treated with substance, was calculated according to the following formula: {((LPSC−SC)−(LPSD−SC))/(LPSC−SC)}×100%=% inhibition SC=vehicle-treated control group challenged with 0.1% hydroxylamine solution; LPSC=vehicle-treated control group challenged with LPS (100 μg/mL 0.1% hydroxylamine solution); LPSD=substance-treated experimental group challenged with LPS (100 μg/mL 0.1% hydroxylamine solution) […]

SMILES	inhibition at 0.3 µM ([1]; concentration 0.3 μmole/L)	Inhibition of Eosinophilia ([2]; 10 mg/kg i.p.)	Inhibition of Eosinophilia ([2]; 10 mg/kg p.o.)	Inhibition of neutrophilia (table titled Inhibition of Eosinophilia) [3]	inhibition at 1 µM ([1]; concentration 1.0 μmole/L)
O=C(Nc1c(Cl)cncc1Cl)C(=O)c1cn(Cc2ccc(F)cc2)c2ncccc12 [Example 14]	92%	62%	59%	80%	
CC(C)Cn1cc(C(=O)C(=O)Nc2c(Cl)cncc2Cl)c2cccnc21 [Example 27]		50%	70%	52%	91%
